In article PMC4659538, “Human GAPDH Is a Target of Aspirin’s Primary Metabolite Salicylic Acid and Its Derivatives” (PLoS ONE, 2015):

Experiments:
[1] = target: T1, human Glyceraldehyde 3-Phosphate Dehydrogenase (HsGAPDH) (Homo sapiens, UniProt P04406); test: UV photoaffinity crosslinking ([…]) with anti-SA immunoblot; format: binding
T1 construct: gene GAPDH; N-terminally His-tagged human GAPDH, expressed in E. coli

[2] = target: T1, human Glyceraldehyde 3-Phosphate Dehydrogenase (HsGAPDH); test: SPR competition with immobilized 3AESA; competition of 4AzSA photoaffinity crosslinking; format: binding

T1 sequence (P04406 whole entry): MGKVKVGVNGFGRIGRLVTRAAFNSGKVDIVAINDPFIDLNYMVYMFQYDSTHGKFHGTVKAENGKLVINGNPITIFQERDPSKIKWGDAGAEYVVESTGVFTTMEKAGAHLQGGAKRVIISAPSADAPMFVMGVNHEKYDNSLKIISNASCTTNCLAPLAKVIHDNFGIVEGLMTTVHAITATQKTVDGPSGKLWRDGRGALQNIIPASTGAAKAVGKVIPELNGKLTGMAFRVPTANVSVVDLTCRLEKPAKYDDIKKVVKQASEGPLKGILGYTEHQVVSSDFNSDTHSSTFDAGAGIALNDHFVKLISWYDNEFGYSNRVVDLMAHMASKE

| Structure (SMILES) | UV photoaffinity crosslinking (0.05 mM) with anti-SA immunoblot [1] | SPR competition with immobilized 3AESA; competition of 4AzSA photoaffinity cross [2] |
| --- | --- | --- |
| [N-]=[N+]=Nc1ccc(C(=O)O)c(O)c1 [4AzSA, 4-azido salicylic acid] | Recombinant HsGAPDH crosslinked with 4AzSA, and this crosslinking was suppressed in the presence of increasing levels of SA. | – |
| O=C(O)c1ccccc1O [SA, Salicylic acid] | – | suppression of this interaction required millimolar concentrations of SA (Fig 2B) |
